Where two headings read alike, the source gives them in different places.

These results are taken from article PMC12903969, “Discovery of a Novel and Potent Kir4.1 Inhibitor as a Safe and Rapid‐Onset Antidepressant Agent in Mice” (Advanced Science, 2025).

Assay [1] concerns MDA-MB-468 breast cancer cells. Description: Cytotoxicity test (CCK-8). Format: cell-based. The conditions noted are these: Homo sapiens, MDA-MB-468, MDA-MB-468 breast cancer cells; read-out: IC50 ± SD (μM) for MDA-MB-468 Inhibition. As for the experimental part: Cytotoxicity of all the tested compounds was determined using the cell counting kit‐8 (CCK‐8) assay kit (Beyotime, Shanghai, China). Briefly, MDA‐MB‐468 was cultured in L15 medium and plated in 96‐well plates at a density of 12,000 cells per well for 24 h at 37 °C in a 5% CO2 incubator. The tested compounds were dissolved in DMSO and diluted with culture medium (DMSO final concentration < 0.4%). Then the cells were treated with compounds (0.41, 1.23, 3.70, 11.11, 33.33, 100.00 µM) for 48 h. After treatments, removal of the supernatant liquor, 100 µL of new media diluted CCK‐8 solution (10% CCK‐8) was added into each well and incubated at 37 °C for 2 h. The absorbance of the mixture was directly measured at 450 nm. The results are presented as a percentage of the control.

For assay [2], the target named is T1, Kir4.1 (Homo sapiens, UniProt P78508).
T1 construct: host or cells: CHO-K1
T1 sequence (P78508 1-379): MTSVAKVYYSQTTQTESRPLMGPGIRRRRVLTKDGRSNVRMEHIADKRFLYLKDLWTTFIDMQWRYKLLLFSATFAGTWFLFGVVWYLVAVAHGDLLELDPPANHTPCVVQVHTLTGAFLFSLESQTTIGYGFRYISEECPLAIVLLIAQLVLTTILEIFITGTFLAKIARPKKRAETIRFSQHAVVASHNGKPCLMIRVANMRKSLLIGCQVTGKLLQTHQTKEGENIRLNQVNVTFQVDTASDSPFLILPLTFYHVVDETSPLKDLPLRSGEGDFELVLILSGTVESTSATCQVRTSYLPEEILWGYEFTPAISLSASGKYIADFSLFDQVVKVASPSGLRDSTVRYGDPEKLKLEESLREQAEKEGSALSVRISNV
Description: Whole-cell patch clamp, Kir4.1 currents in transfected CHO-K1 cells. Format: cell-based. Conditions: for inhibition at 1 µM: CHO-K1, 1 μM; for inhibition at 10 µM: CHO-K1, 10 μM. Here is the method: Plasmids encoding WT human potassium channels Kir1.1, Kir2.1, Kir2.2, Kir4.1, and Kir4.2 were obtained from the Beijing Genomics Institute. All point mutations were constructed using the QuickChange II Site‐Directed Mutagenesis Kit (Stratagene) and subsequently verified by sequencing.
CHO‐K1 cells were maintained in DMEM/F12 growth medium containing 10% fetal bovine serum. Plasmids encoding the target genes (3600 ng) and enhanced green fluorescent protein (400 ng) were cotransfected into cells using Lipofectamine 2000 (Invitrogen) in accordance with the manufacturer's instructions. Cells were seeded onto poly‐d‐lysine (PDL)‐coated glass coverslips 1 h prior to electrophysiological recordings. All cells were cultured under standard conditions of 5% CO2 at 37 °C.
Whole‐cell patch‐clamp recordings were obtained either in transiently transfected CHO‐K1 cells or in primary cultured astrocytes at room temperature using standard patch‐clamp techniques with an Axopatch‐700B amplifier (Axon Instruments). The signals were filtered at 2 kHz and sampled at 20 kHz using the Digidata 1440A interface (Axon Instruments). The resistance of borosilicate glass pipettes was typically 2–4 MΩ when filled with the internal solution. Drug application was facilitated using a BPS perfusion system (ALA Scientific Instruments). Macroscopic currents generated by expressed potassium channels were recorded under the voltage‐clamp conditions with an internal pipette solution composed of (in mM): 140 KCl, 5 NaCl, 1 CaCl2, 1 MgCl2, 10 HEPES, and 10 EGTA, pH 7.2 adjusted with KOH. The external solution contained (in mM): 140 NaCl, 5 KCl, 2 CaCl2, 1 MgCl2, 10 glucose, and 10 HEPES, pH 7.4 adjusted with NaOH. Currents were elicited with a hyperpolarized voltage at −120 mV from the holding potential of −80 mV, followed by a ramp voltage depolarizing to +50 mV. Astrocytic resting membrane potentials were recorded under current‐clamp conditions (I = 0 pA) using standard internal and external solutions, determined immediately after achieving whole‐cell mode.
A general note: The patch-clamp technique gives a direct electrical read-out from membranes.

Setting [3] is: +50 mV, read-out: Kir4.1 Inhibition ± SD (%) at 1 μM, +50 mV.
The mark [4] stands for this setting: -120 mV, read-out: Kir4.1 Inhibition ± SD (%) at 1 μM, -120 mV.
[5] abbreviates: +50 mV, read-out: Kir4.1 Inhibition ± SD (%) at 10 μM, +50 mV.
[6] abbreviates: -120 mV, read-out: Kir4.1 Inhibition ± SD (%) at 10 μM, -120 mV.
Where [7] appears, read: CHO-K1, 0.5 μM, +50 mV, read-out: Kir4.1 Inhibition ± SD (%) at 0.5 μM, +50 mV.
Where [8] appears, read: CHO-K1, 0.5 μM, -120 mV, read-out: Kir4.1 Inhibition ± SD (%) at 0.5 μM, -120 mV.

As a reminder, the IC50 is the point on the concentration scale where inhibition reaches its midpoint. Usually inhibition stands for the drop in the measured response relative to a control, in per cent. Take `c1ccc2c(c1)oc1ccc(Nc3ccnc(NCC4(CN5CCOCC5)CC4)n3)cc12` [JX3235, N^4-(dibenzo[b,d]furan-2-yl)-N^2-((1-(morpholinomethyl)cyclopropyl)methyl)pyrimidine-2,4-diamine]: the IC50 in assay [1] stood at 11.3 ± 0.32 µM. Besides, the values for the inhibition at 1 µM in assay [2] (setting [3]) and in assay [2] (setting [4]) were 10.8 ± 2.21% and 6.83 ± 3.85%, respectively. Besides, the inhibition at 10 µM stood at 92.4 ± 3.68% in assay [2] (setting [5]) and 85.4 ± 5.46% in assay [2] (setting [6]).
As to `O=C(NCCNc1nccc(Nc2ccc3oc4ccccc4c3c2)n1)N1CCOCC1` [JX3236, N-(2-((4-(dibenzo[b,d]furan-2-ylamino)pyrimidin-2-yl)amino)ethyl)morpholine-4-carboxamide], the half-inhibitory concentration (IC50) in assay [1] amounted to 21.9 ± 1.01 µM. The inhibition at 1 µM in assay [2] (setting [3]) is 5 ± 5.21%; in assay [2] (setting [4]), -4.25 ± 7.82%. Besides, the inhibition at 10 µM in assay [2] (setting [5]) was determined as 89.24 ± 0.5%; in assay [2] (setting [6]), 70.8 ± 2.5%.
The corresponding values for `CC(C)(C)OC(=O)NCCCNc1nccc(Nc2ccc3oc4ccccc4c3c2)n1` [JX3237, tert-butyl (3-((4-(dibenzo[b,d]furan-2-ylamino)pyrimidin-2-yl)amino)propyl)carbamate] are 4.84 ± 0.06 µM, 12.5 ± 7.25%, 7.65 ± 4.73%, 89.1 ± 3.59% and 73.8 ± 0.93%.
In the same order, the values of `CCN(CC)CCCNc1nccc(Nc2ccc3oc4ccccc4c3c2)n1` [JX3238, N^4-(dibenzo[b,d]furan-2-yl)-N^2-(3-(diethylamino)propyl)pyrimidine-2,4-diamine] are 10.3 ± 3.8 µM, 27 ± 12.3%, 2.21 ± 3.14%, 98.5 ± 0.23% and 93.1 ± 2.15%.
With `c1ccc2c(c1)oc1ccc(Nc3ccnc(NCCCN4CCCC4)n3)cc12` [JX3239, N^4-(dibenzo[b,d]furan-2-yl)-N^2-(3-(pyrrolidin-1-yl)propyl)pyrimidine-2,4-diamine], in assay [1], the IC50 turned out to be 11.1 ± 0.81 µM. Moreover, the inhibition at 1 µM in assay [2] (setting [3]) is 53.2 ± 3.51%; in assay [2] (setting [4]), 36.4 ± 5.31%. Also, the inhibition at 10 µM came out at 96 ± 2.25% in assay [2] (setting [5]) and 90.9 ± 4.5% in assay [2] (setting [6]).
As to `CC1(C)C2CN(CCCNc3nccc(Nc4ccc5oc6ccccc6c5c4)n3)CC21` (stereo not drawn) [JX3240, N^4-(dibenzo[b,d]furan-2-yl)-N^2-(3-(6,6-dimethyl-3-azabicyclo[3.1.0]hexan-3-yl)propyl)pyrimidine-2,4-diamine], the 50% inhibitory concentration (IC50) in assay [1] came to 5.37 ± 0.22 µM. Besides, the inhibition at 0.5 µM in assay [2] (setting [7]) was -0.92 ± 3.58%; in assay [2] (setting [8]), -0.29 ± 1.05%. Moreover, the inhibition at 1 µM was found to be 90 ± 1.44% in assay [2] (setting [3]) and 84.7 ± 4.13% in assay [2] (setting [4]). Further, the inhibition at 10 µM in assay [2] (setting [5]) came out at 97.46 ± 0.83%; in assay [2] (setting [6]), 97.35 ± 0.65%.
For the compound `O=C(NCCCNc1nccc(Nc2ccc3oc4ccccc4c3c2)n1)N1CCOCC1` [JX3241, N-(3-((4-(dibenzo[b,d]furan-2-ylamino)pyrimidin-2-yl)amino)propyl)morpholine-4-carboxamide], the IC50 in assay [1] amounted to 21.1 ± 1.53 µM. Moreover, the inhibition at 1 µM in assay [2] (setting [3]) amounted to 4.09 ± 2.08%; in assay [2] (setting [4]) it was 1.97 ± 2.44%. Besides, the inhibition at 10 µM came out at 84.2 ± 2.69% in assay [2] (setting [5]) and 59.5 ± 3.66% in assay [2] (setting [6]).
In the same order, the values of `C[C@@H]1CN(CCCNc2nccc(Nc3ccc4oc5ccccc5c4c3)n2)C[C@H](C)O1` [JX3242, N^4-(dibenzo[b,d]furan-2-yl)-N^2-(3-((2S,6R)-2,6-dimethylmorpholino)propyl)pyrimidine-2,4-diamine] are 5.38 ± 0.11 µM, -0.93 ± 7.76%, -3.38 ± 9.3%, 97.5 ± 1.92% and 94.2 ± 1.77%.
In the same order, the values of `c1ccc2c(c1)oc1ccc(Nc3ccnc(NCCCN4CCSCC4)n3)cc12` [JX3243, N^4-(dibenzo[b,d]furan-2-yl)-N^2-(3-thiomorpholinopropyl)pyrimidine-2,4-diamine] are 7.11 ± 0.62 µM, -1.39 ± 1.64%, 0.17 ± 1.63%, 98.74 ± 0.36% and 98.6 ± 0.56%.
Regarding `c1ccc2c(c1)oc1ccc(Nc3ccnc(NCCCN4CCCCC4)n3)cc12` [JX3244, N^4-(dibenzo[b,d]furan-2-yl)-N^2-(3-(piperidin-1-yl)propyl)pyrimidine-2,4-diamine], in assay [1], the concentration for half-maximal inhibition (IC50) amounted to 6.86 ± 0.23 µM. Besides, the inhibition at 0.5 µM in assay [2] (setting [7]) was 74.9 ± 2.12%; in assay [2] (setting [8]), 63 ± 5.95%; in assay [2] (CHO-K1, 0.5 µM, read-out: Kir4.1 inhibition at 0.5 µM) it was above 60%. Also, the inhibition at 1 µM in assay [2] (setting [3]) was found to be 85.4 ± 3.98%; in assay [2] (setting [4]), 74.5 ± 6.63%. Besides, the inhibition at 10 µM in assay [2] (setting [5]) is 98.66 ± 0.25%; in assay [2] (setting [6]), 97 ± 1.09%.
Turning to `CC1CCN(CCCNc2nccc(Nc3ccc4oc5ccccc5c4c3)n2)CC1` [JX3245, N^4-(dibenzo[b,d]furan-2-yl)-N^2-(3-(4-methylpiperidin-1-yl)propyl)pyrimidine-2,4-diamine], the IC50 in assay [1] turned out to be 5.95 ± 0.04 µM. Moreover, the inhibition at 0.5 µM amounted to 21.4 ± 6.07% in assay [2] (setting [7]) and 9.76 ± 2.44% in assay [2] (setting [8]). For the same compound, the inhibition at 1 µM amounted to 96.35 ± 0.66% in assay [2] (setting [3]) and 92.48 ± 0.8% in assay [2] (setting [4]). Moreover, the inhibition at 10 µM amounted to 96.84 ± 0.61% in assay [2] (setting [5]) and 95.5 ± 2.8% in assay [2] (setting [6]).
For `COC1CCN(CCCNc2nccc(Nc3ccc4oc5ccccc5c4c3)n2)CC1` [JX3246, N^4-(dibenzo[b,d]furan-2-yl)-N^2-(3-(4-methoxypiperidin-1-yl)propyl)pyrimidine-2,4-diamine], the IC50 in assay [1] worked out at 9.97 ± 0.62 µM. For the same compound, the results for the inhibition at 1 µM in assay [2] (setting [3]) and in assay [2] (setting [4]) were 73 ± 5.77% and 55.4 ± 3.73%, respectively. The inhibition at 10 µM in assay [2] (setting [5]) turned out to be 91.3 ± 3.5%; in assay [2] (setting [6]), 89.5 ± 2.33%.
The corresponding values for `CC1CC(C)CN(CCCNc2nccc(Nc3ccc4oc5ccccc5c4c3)n2)C1` (stereo not drawn) [JX3247, N^4-(dibenzo[b,d]furan-2-yl)-N^2-(3-(3,5-dimethylpiperidin-1-yl)propyl)pyrimidine-2,4-diamine] are 6.03 ± 0.24 µM, 80.4 ± 8.36%, 66.6 ± 2.75%, 97.75 ± 0.84% and 94.2 ± 2.26%.
In the same order, the values of `c1ccc2c(c1)oc1ccc(Nc3ccnc(NCCCN4CCN(C5COC5)CC4)n3)cc12` [JX3248, N^4-(dibenzo[b,d]furan-2-yl)-N^2-(3-(4-(oxetan-3-yl)piperazin-1-yl)propyl)pyrimidine-2,4-diamine] are above 50 µM, 21.9 ± 8.36%, 11.5 ± 6.63%, 97.46 ± 0.59% and 81.5 ± 2.87%.
Regarding `c1ccc2c(c1)oc1ccc(Nc3ccnc(NCCCN4CCCCCC4)n3)cc12` [JX3249, N^2-(3-(azepan-1-yl)propyl)-N^4-(dibenzo[b,d]furan-2-yl)pyrimidine-2,4-diamine], in assay [1], the half-inhibitory concentration (IC50) was 5.1 ± 0.21 µM. Further, the inhibition at 0.5 µM amounted to 56 ± 5.59% in assay [2] (setting [7]) and 46.4 ± 8.18% in assay [2] (setting [8]). The inhibition at 1 µM was found to be 92.4 ± 1.44% in assay [2] (setting [3]) and 82.2 ± 2.24% in assay [2] (setting [4]). Moreover, the inhibition at 10 µM in assay [2] (setting [5]) is 98.49 ± 0.04%; in assay [2] (setting [6]), 94.9 ± 1.88%.
